The subject of test [1] is central and peripheral neurons grown in culture. As to conditions: death induced by reduced phosphatidyl inositol pathway activity (Cross et al.); cited from earlier work.
For a further test, the system named is GSK-3. As to conditions: literature report; cited from earlier work.
The subject of the next test is β-catenin. Put plainly: β-catenin protein levels in ciliary body and trabecular meshwork of perfused anterior segments. As to conditions: ciliary body and trabecular meshwork (TM) after FRP-1 perfusion. Set-up: species or system human. The source says: (§1) Recently it has been discovered that frizzled related protein (FRP) is differentially expressed in a number of glaucomatous trabecular meshwork cell lines. […] The decreased flow rate in the cultured anterior segments models an increase in resistance to outflow (increase in intraocular pressure) in intact eye.

The subject of test [2] is perfused human ocular anterior segments. Put plainly: Outflow rate in perfused human ocular anterior segments maintained in culture. The procedure: as §1
Human ocular anterior segments are perfused with Dulbecco's modified Eagle's medium (DMEM) at a constant pressure of 11 mm Hg. The outflow rate of each eye is measured by weighing its reservoir at specified periods. After a stabilization period, the eyes are perfused with either vehicle or FRP-1 (10 μg/ml) and their outflow rates monitored for 2-5 days. […] Inhibitor is added and the anterior segment is perfused for an additional 2-4 days. Outflow rate is measured by weighing its reservoir at specific periods.

In the case of `O=C1NC(=O)C(c2ccccc2[N+](=O)[O-])=C1Nc1ccc(O)c(Cl)c1` [SB-415286], the “protection of neurons from death” value in test [1] was “protected both central and peripheral neurons”.

As to `CN(C)CCCn1cc(C2=C(c3c[nH]c4ccccc34)C(=O)NC2=O)c2ccccc21` [GF1092], the GSK-3 inhibition entry in the test on GSK-3 is reported as “inhibitors of GSK-3”.

`Cn1cc(C2=C(c3cn(CCCSC(=N)N)c4ccccc34)C(=O)NC2=O)c2ccccc21` [Ro 31-8220]: the GSK-3 inhibition result in the test on GSK-3 is listed as “inhibitors of GSK-3”.

Take `Cn1cc(C2=C(c3ccc(Cl)cc3Cl)C(=O)NC2=O)c2ccccc21` [SB216763]: in test [1], the “protection of neurons from death” value was “protected both central and peripheral neurons”.

B1: FRP-1: frizzled related protein, secreted protein that antagonizes the Wnt signaling pathway (protein, UniProt Q8N474 32-314, looked up)
Secreted frizzled-related …: SEYDYVSFQSDIGPYQSGRFYTKPPQCVDIPADLRLCHNVGYKKMVLPNLLEHETMAEVKQQASSWVPLLNKNCHAGTQVFLCSLFAPVCLDRPIYPCRWLCEAVRDSCEPVMQFFGFYWPEMLKCDKFPEGDVCIAMTPPNATEASKPQGTTVCPPCDNELKSEAIIEHLCASEFALRMKIKEVKKENGDKKIVPKKKKPLKLGPIKKKDLKKLVLYLKNGADCPCHQLDNLSHHFLIMGRKVKSQYLLTAIHKWDKKNKEFKNFMKKMKNHECPTFQSVFK
Consider B1, for which the β-catenin protein levels result with β-catenin was “decrease in β-catenin protein levels”. Also, the aqueous humor outflow entry in test [2] (FRP-1 10 μg/ml, constant pressure 11 mm Hg, outflow monitored 2-5 days) is on record as “decrease in aqueous humor outflow”. Also, the flowrate entry in test [2] (perfusion of FRP-1 through perfused human ocular anterior segments in culture) was “decrease in flowrate”.

(Values after US20090312390A1, “INHIBITORS OF GLYCOGEN SYNTHASE KINASE-3 (GSK-3) FOR TREATING GLAUCOMA” (ALCON, INC., priority 2001, published 2009).)
